Results from patent US7736861B1, “Tivozanib response prediction” (AVEO Pharmaceuticals, Inc., priority 2009, dated 2010).

How the values were obtained:
[1] = 272-patient Phase 2 clinical trial; Bhargava et al., 2009; cited from earlier work
preclinical models = settings: Nakamura et al., 2006; cited from earlier work
[2] = tested on: murine breast tumors (Her2-dependent, BH archive); test: murine breast tumor response to tivozanib (BH archive tumors transplanted subcutaneously in NCr nude mice); type: in vivo, mouse
Excerpt: A library of more than 100 murine breast tumors (BH archive) was used to identify tumors that are sensitive to tivozanib (responders) and tumors that are resistant to tivozanib (non-responders). The BH archive was established by in vivo propagation and cryopreservation of primary tumor material from more than 100 spontaneous murine breast tumors derived from engineered chimeric mice that develop Her2-dependent, inducible spontaneous breast tumors. The mice were produced essentially as follows.
Tumor cells were isolated by physical disruption of the tumors using cell strainers. Typically 1×10^5 cells were mixed with matrigel (50:50 volume) and injected subcutaneously into female NCr nu/nu mice on upper dorsal region between the shoulder blades. When these tumors grew to approximately 500 mm^3, which typically required 2 to 4 weeks, they were collected for further propagation, drug response testing, and analysis. Analysis included microarray profiling, general histopathology, and IHC (CD31 for tumor vasculature, Ki67 for tumor cell proliferation).
Evaluation of tumor response to tivozanib was performed essentially as follows. Subcutaneously transplanted tumors were established by injecting physically disrupted tumor cells (mixed with Matrigel) into 7 week-old female NCr nude mice. When the tumors reached approximately 200-400 mm^3, 30 tumor-bearing mice were randomized into three groups. Group 1 received vehicle. Group 2 received tivozanib at 5 mg/kg daily by oral gavage. Group 3 received tivozanib at 20 mg/kg daily by oral gavage. Tumors were measured twice per week by a caliper, and tumor volume was calculated. At the end of the treatment, tumors were collected for histopathological analysis and IHC analysis.
Based on tumor growth inhibition and typical histopathological and IHC (CD31) characteristics for angiogenesis inhibition, responders and non-responders were identified. […] The variation in response was expected, because the mouse model tumors had arisen spontaneously, and therefore they were expected to contain differing sets of random mutations that had led to tumorigenesis, including tumor angiogenesis. Such variation in response was desirable, because it was similar to the variation in naturally occurring human tumors, and thus enabled identification of tivozanib-responsive tumors and tivozanib-resistant tumors for use in identifying the molecular signature or tivozanib responsiveness.

VEGF receptor 3 = VEGF receptor 3 (Homo sapiens, UniProt P35916); settings: Nakamura et al., 2006; cited from earlier work
[3] = of 26 individual murine breast tumors, FIG. 1

Chain of VEGF receptor 3 (P35916 25-1363): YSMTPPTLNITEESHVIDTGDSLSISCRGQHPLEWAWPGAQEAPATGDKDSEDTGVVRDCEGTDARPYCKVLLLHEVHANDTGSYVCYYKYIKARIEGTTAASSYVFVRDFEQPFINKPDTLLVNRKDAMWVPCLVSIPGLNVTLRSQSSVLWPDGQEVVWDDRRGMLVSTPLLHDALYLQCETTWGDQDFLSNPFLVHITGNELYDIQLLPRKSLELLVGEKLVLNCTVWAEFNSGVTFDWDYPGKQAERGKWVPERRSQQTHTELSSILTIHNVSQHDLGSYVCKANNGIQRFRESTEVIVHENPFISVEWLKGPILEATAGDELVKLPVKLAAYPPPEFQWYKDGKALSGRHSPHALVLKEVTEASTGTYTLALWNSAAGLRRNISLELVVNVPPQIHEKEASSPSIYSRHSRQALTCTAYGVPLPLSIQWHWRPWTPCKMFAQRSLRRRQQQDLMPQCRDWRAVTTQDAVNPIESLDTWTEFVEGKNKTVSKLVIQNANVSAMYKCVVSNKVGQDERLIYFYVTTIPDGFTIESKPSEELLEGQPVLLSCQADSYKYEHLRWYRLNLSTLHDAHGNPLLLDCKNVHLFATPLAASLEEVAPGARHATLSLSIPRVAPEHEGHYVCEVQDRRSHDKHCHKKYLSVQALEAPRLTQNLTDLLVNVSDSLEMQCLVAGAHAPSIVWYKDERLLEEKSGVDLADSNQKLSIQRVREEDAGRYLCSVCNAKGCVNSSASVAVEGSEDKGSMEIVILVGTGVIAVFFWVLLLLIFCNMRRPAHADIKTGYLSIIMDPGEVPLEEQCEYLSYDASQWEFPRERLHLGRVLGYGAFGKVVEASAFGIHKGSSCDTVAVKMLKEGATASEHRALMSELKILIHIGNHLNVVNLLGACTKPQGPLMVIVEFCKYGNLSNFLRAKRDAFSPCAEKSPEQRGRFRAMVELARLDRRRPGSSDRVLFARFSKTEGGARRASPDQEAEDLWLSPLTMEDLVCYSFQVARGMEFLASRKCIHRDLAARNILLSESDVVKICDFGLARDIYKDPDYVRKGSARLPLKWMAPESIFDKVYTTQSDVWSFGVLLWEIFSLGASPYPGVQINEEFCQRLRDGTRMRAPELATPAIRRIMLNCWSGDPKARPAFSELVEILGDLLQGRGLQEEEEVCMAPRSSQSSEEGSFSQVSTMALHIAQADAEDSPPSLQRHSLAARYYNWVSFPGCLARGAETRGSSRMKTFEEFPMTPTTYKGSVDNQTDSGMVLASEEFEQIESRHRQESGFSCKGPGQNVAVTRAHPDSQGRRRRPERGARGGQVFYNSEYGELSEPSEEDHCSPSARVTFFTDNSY

## COc1cc2nccc(Oc3ccc(NC(=O)Nc4cc(C)on4)c(Cl)c3)c2cc1OC [tivozanib, N-{2-chloro-4-[(6,7-dimethoxy-4-quinolyl)oxy]-phenyl}-N′-(5-methyl-3-isoxazolyl)urea]
[1]
  interim results of clinical trial: positive interim results
Preclinical models
  antitumor activity: exhibits antitumor activity
[2]; 5 or 20 mg/kg daily by oral gavage
  variation in response among tumors: significant tumor-to-tumor variation in response
[2]; [3]
  number of tumors classified as non-responsive (tivozanib resistant tumors): 18
  number of tumors classified as responsive (tivozanib sensitive tumors): eight
[2]; responder tumors, 5 mg/kg daily by oral gavage
  tumor progression by caliper measurement: no tumor progression
[2]; responder tumors, 5 mg/kg daily by oral gavage, except the peripheries
  tumor killing (by histology): close to complete tumor killing
VEGF receptor 3
  inhibitory activity: picomolar
